Here are results for 19 molecules from ChEMBL document CHEMBL4184267, “Novel naftopidil derivatives containing methyl phenylacetate and their blocking effects on α1D/1A-adrenoreceptor subtypes” (Bioorg Med Chem Lett, 2018).

Assay [1] deals with Thoracic aorta. As to the kind of experiment: Vasodilatory activity in New Zealand White rabbit thoracic aorta assessed as relaxation of (-)-noradrenaline-induced contractile response at 10 uM relative to untreated control. More on the design: scale not given: the % may be the effect or the level left. In kind it is functional, Oryctolagus cuniculus.
Assay [2] has as its system Thoracic aorta. As to the kind of experiment: Vasodilatory activity in New Zealand White rabbit thoracic aorta assessed as relaxation of (-)-noradrenaline-induced contractile response at 0.1 uM relative to untreated control. In kind it is functional, Oryctolagus cuniculus. More on the design: scale not given: the % may be the effect or the level left.
For assay [3], the system named is Thoracic aorta. As to the kind of experiment: Vasodilatory activity in New Zealand White rabbit thoracic aorta assessed as relaxation of (-)-noradrenaline-induced contractile response at 1 uM relative to untreated control. In kind it is functional, Oryctolagus cuniculus. More on the design: scale not given: the % may be the effect or the level left.
The target in assay [4] is T1, Alpha-1B adrenergic receptor (Rattus norvegicus, UniProt P15823).
T1 sequence (P15823 whole entry): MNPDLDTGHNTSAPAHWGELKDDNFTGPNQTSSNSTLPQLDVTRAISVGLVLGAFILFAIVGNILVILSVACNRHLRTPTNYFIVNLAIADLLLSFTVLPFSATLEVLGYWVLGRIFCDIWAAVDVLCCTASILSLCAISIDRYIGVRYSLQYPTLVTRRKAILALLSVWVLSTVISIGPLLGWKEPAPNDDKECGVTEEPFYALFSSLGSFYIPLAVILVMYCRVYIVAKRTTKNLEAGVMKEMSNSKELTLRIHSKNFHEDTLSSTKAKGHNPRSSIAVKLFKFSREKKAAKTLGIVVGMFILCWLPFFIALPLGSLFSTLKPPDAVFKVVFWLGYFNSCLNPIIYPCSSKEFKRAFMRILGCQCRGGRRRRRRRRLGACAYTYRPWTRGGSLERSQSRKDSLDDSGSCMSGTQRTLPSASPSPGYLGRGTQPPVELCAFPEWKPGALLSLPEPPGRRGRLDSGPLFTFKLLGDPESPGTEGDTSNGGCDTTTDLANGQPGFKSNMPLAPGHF
As to the kind of experiment: Antagonist activity at alpha1B-adrenoreceptor in Sprague-Dawley rat spleen assessed as relaxation of (-)-noradrenaline-induced contractile response. In kind it is functional. The note with it: read-out: pA2 (converted).

For assay [5], the target named is T2, Alpha-1A adrenergic receptor (Rattus norvegicus, UniProt P43140).
T2 sequence (P43140 whole entry): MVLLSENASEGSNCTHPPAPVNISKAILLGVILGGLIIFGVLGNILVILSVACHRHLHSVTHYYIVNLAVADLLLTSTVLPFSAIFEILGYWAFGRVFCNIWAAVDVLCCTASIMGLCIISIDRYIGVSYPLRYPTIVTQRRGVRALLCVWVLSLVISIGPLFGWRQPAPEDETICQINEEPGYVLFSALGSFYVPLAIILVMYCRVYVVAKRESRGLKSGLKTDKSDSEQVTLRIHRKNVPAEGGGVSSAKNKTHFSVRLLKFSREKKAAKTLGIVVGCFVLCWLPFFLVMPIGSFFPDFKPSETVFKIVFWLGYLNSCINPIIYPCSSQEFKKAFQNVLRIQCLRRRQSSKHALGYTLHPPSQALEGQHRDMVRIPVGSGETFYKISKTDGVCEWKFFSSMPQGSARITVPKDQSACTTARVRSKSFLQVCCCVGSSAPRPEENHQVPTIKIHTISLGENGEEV
As to the kind of experiment: Antagonist activity at alpha1A-adrenoreceptor in Sprague-Dawley rat vas deferens assessed as relaxation of (-)-noradrenaline-induced contractile response. It is filed as functional. Conditions: read-out: pA2 (converted).

Assay [6] has as its target T3, Alpha-1D adrenergic receptor (Rattus norvegicus, UniProt P23944).
T3 sequence (P23944 whole entry): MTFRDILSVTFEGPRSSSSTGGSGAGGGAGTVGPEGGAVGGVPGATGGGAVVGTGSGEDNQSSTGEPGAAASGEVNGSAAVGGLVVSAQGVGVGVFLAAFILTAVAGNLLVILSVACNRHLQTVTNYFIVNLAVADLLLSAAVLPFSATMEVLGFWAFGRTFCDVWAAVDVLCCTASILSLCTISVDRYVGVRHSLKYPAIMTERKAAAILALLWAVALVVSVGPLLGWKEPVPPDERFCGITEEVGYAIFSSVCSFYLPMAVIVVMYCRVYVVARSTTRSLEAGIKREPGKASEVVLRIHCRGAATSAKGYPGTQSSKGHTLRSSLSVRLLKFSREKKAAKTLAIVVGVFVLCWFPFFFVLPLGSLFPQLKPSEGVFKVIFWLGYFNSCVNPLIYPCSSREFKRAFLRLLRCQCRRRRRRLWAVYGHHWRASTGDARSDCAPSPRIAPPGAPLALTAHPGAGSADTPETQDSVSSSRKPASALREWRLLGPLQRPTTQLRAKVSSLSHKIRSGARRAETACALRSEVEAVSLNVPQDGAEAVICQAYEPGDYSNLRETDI
Put plainly: Antagonist activity at alpha1D-adrenoreceptor in Sprague-Dawley rat thoracic aorta assessed as relaxation of (-)-noradrenaline-induced contractile response. It is filed as functional. Conditions: read-out: pA2 (converted).

In assay [7] the target is T4, Alpha-1D adrenergic receptor (Homo sapiens, UniProt P25100).
T4 sequence (P25100 whole entry): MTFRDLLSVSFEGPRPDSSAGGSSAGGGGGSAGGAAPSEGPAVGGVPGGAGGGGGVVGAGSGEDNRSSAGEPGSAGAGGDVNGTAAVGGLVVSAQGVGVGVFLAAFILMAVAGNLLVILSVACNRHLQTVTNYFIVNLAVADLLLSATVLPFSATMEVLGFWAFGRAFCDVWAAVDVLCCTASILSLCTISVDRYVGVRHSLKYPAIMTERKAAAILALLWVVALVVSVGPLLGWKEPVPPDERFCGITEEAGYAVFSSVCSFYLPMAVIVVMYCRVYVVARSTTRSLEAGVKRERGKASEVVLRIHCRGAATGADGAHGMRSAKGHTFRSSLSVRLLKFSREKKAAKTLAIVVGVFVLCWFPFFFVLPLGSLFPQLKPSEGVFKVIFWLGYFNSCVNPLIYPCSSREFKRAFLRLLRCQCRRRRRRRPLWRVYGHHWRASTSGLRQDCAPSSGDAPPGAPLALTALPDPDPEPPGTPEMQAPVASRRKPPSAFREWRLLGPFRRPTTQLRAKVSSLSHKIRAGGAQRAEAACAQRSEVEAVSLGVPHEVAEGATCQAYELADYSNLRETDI
As to the kind of experiment: Displacement of [125I-HEAT from human alpha1D-adrenoreceptor expressed in CHOK1 cell membranes incubated for 60 mins.

For assay [8], the target named is T5, Alpha-1B adrenergic receptor (Homo sapiens, UniProt P35368).
T5 sequence (P35368 whole entry): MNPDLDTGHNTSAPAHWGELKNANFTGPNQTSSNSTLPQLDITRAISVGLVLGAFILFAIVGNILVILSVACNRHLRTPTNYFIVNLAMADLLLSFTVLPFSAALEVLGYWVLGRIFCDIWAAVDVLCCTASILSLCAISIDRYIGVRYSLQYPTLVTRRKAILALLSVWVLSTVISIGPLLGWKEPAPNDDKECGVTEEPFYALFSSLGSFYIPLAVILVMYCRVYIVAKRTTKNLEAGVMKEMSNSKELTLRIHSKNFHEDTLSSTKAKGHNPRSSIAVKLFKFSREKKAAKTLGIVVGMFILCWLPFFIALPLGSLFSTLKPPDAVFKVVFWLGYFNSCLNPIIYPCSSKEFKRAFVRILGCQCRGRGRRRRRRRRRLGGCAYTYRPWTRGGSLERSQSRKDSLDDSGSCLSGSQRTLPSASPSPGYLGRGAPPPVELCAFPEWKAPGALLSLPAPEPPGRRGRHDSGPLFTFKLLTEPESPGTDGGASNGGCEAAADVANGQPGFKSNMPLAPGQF
Put plainly: Displacement of [125I-HEAT from human alpha1B-adrenoreceptor expressed in CHOK1 cell membranes incubated for 60 mins. (In general: In a radioligand displacement assay an active substance lowers the binding of a labelled ligand.)

Broadly, the Ki is the dissociation constant of the complex between target and ligand, obtained from inhibition or displacement.

Turning to `COC(=O)Cc1ccc(OCC(O)CN2CCN(c3ccc(C)c(C)c3)CC2)cc1` (stereo not drawn), the Activity with Thoracic aorta [1] came out at 70.2%; in the assay with Thoracic aorta [2], 8.9%; with Thoracic aorta [3], 28.4%.
The like results for `COC(=O)Cc1ccc(OCC(O)CN2CCN(c3ccc(OC)cc3)CC2)cc1` (stereo not drawn) were, in that order, 15.8%, 6.3% and 7%.
For `COC(=O)Cc1ccc(OCC(O)CN2CCN(c3ccc(Br)cc3)CC2)cc1` (stereo not drawn), in that order: 43.5%, 7.9% and 16.6%.
`COC(=O)Cc1ccc(OC[C@H](O)CN2CCN(c3cc(C)ccc3C)CC2)cc1`: the Kb in assay [4] is 447 nM; in assay [5], 63.1 nM; in assay [6], 38 nM.
Consider `COC(=O)Cc1ccc(OCC(O)CN2CCN(c3ccccc3C)CC2)cc1` (stereo not drawn), for which the Activity with Thoracic aorta [1] turned out to be 99.3%; in the assay on Thoracic aorta [2] it was 27.3%; in the assay with Thoracic aorta [3], 62.3%. The Kb in assay [4] is 324 nM; in assay [5], 490 nM; in assay [6] it was 20 nM.
As to `COC(=O)Cc1ccc(OCC(O)CN2CCN(c3ccc(C)c(Cl)c3)CC2)cc1` (stereo not drawn), the Activity in the assay on Thoracic aorta [1] is 38.7%; in the assay with Thoracic aorta [2] it was 19.5%; in the assay on Thoracic aorta [3], 25.9%.
For `CCOc1cccc(N2CCN(CC(O)COc3ccc(CC(=O)OC)cc3)CC2)c1` (stereo not drawn), in that order: 14.9%, 6.1% and 10.2%.
The like results for `COC(=O)Cc1ccc(OCC(O)CN2CCN(c3ccc(C)cc3)CC2)cc1` (stereo not drawn) were, in that order, 56.7%, 15.3% and 28.7%.
For `COC(=O)Cc1ccc(OCC(O)CN2CCN(c3cccc(C)c3)CC2)cc1` (stereo not drawn), in that order: 63.5%, 14.8% and 36.9%.
For `COC(=O)Cc1ccc(OCC(O)CN2CCN(c3ccc(C)cc3C)CC2)cc1` (stereo not drawn), the Activity in the assay with Thoracic aorta [1] is on record as 92.7%; in the assay with Thoracic aorta [2], 13.7%; with Thoracic aorta [3], 43.3%.
Take `COC(=O)Cc1ccc(OCC(O)CN2CCN(c3cc(C)ccc3C)CC2)cc1` (stereo not drawn): the Activity in the assay on Thoracic aorta [1] is 100%; in the assay with Thoracic aorta [2], 24.3%; with Thoracic aorta [3], 66.2%. The Kb in assay [4] was 759 nM; in assay [5], 38.9 nM; in assay [6] it was 44.7 nM.
`COC(=O)Cc1ccc(OCC(O)CN2CCN(c3cc(C)cc(C)c3)CC2)cc1` (stereo not drawn): the Activity in the assay with Thoracic aorta [1] is 61.4%; with Thoracic aorta [2], 5.8%; with Thoracic aorta [3], 18.6%.
The like results for `COC(=O)Cc1ccc(OCC(O)CN2CCN(c3cccc(OC)c3)CC2)cc1` (stereo not drawn) were, in that order, 39.8%, 13% and 23.7%.
Turning to `COC(=O)Cc1ccc(OC[C@@H](O)CN2CCN(c3cc(C)ccc3C)CC2)cc1`, the Kb was 269 nM in assay [4], 30.2 nM in assay [5] and 15.5 nM in assay [6].
Regarding `COC(=O)Cc1ccc(OCC(O)CN2CCN(c3cccc(C)c3C)CC2)cc1` (stereo not drawn), the Activity with Thoracic aorta [1] was 81.7%; with Thoracic aorta [2], 12.5%; with Thoracic aorta [3], 43.3%.
For `COC(=O)Cc1ccc(OCC(O)CN2CCN(c3ccccc3OC)CC2)cc1` (stereo not drawn), the Activity in the assay on Thoracic aorta [1] is 100%; with Thoracic aorta [2], 27.6%; with Thoracic aorta [3], 71.1%. In addition, the Kb in assay [4] was 603 nM; in assay [5], 148 nM; in assay [6], 77.6 nM.
Consider `COC(=O)Cc1ccc(OCC(O)CN2CCN(c3cc(Cl)c(OC)cc3OC)CC2)cc1` (stereo not drawn), for which the Activity in the assay on Thoracic aorta [1] is 46.1%; with Thoracic aorta [2], 8.2%; in the assay on Thoracic aorta [3], 20.4%.
The like results for `COC(=O)Cc1ccc(OCC(O)CN2CCN(c3ccccc3Cl)CC2)cc1` (stereo not drawn) were, in that order, 98.3%, 29% and 58.7%.
`COc1ccccc1N1CCN(CC(O)COc2cccc3ccccc23)CC1` (stereo not drawn) [NAFTOPIDIL]: the Activity in the assay with Thoracic aorta [1] is on record as 97.8%; with Thoracic aorta [2], 25.1%; with Thoracic aorta [3], 86.9%. The Ki in assay [7] was 1.2 nM; in assay [8], 20 nM.
